Experimental data taken from ChEMBL document CHEMBL2177054, “Rational design of conformationally constrained cyclopentapeptide antagonists for C-x-C chemokine receptor 4 (CXCR4)” (J Med Chem, 2012).

Each compound was assayed against C-X-C chemokine receptor type 4 (Homo sapiens, UniProt P61073) (assay: Antagonist activity against human CXCR4 expressed in COS7 cells assessed as inhibition of CXCL12-induced myo-[3H]inositol production by scintillation counting).
Format: functional, cell-based, COS-7

C-X-C chemokine receptor type 4, sequence (P61073 whole entry): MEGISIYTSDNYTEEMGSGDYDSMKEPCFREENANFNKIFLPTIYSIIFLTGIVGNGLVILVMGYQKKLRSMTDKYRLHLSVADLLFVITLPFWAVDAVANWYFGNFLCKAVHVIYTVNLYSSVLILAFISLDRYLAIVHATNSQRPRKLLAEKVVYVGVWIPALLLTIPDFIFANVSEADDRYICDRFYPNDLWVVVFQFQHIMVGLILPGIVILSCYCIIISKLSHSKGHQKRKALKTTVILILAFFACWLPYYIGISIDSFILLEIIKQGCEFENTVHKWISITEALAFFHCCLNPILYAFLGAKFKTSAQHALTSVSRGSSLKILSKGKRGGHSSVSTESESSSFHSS

EC50 [µM] | SMILES
> 100 | NC(=O)NCCC[C@@H]1NC(=O)[C@H](CCCNC(N)=O)NC(=O)[C@@H](Cc2ccc(O)cc2)NC(=O)CNC(=O)[C@H](Cc2ccc3ccccc3c2)NC1=O
> 100 | N=C(N)NCCC[C@@H]1NC(=O)[C@@H](Cc2ccc(O)cc2)NC(=O)CNC(=O)[C@H](Cc2ccc3ccccc3c2)NC(=O)[C@H](CCCNC(N)=O)NC1=O
36 | N=C(N)NCCC[C@@H]1NC(=O)CNC(=O)[C@@H](Cc2ccc(O)cc2)NC(=O)CNC(=O)[C@H](Cc2ccc3ccccc3c2)NC1=O
3.6 | CC1(C)NC(=O)[C@@H](Cc2ccc(O)cc2)NC(=O)CNC(=O)[C@H](Cc2ccc3ccccc3c2)NC(=O)[C@H](CCCNC(=N)N)NC1=O
5.4 | N=C(N)NCCC[C@@H]1NC(=O)C2(CCCCC2)NC(=O)[C@@H](Cc2ccc(O)cc2)NC(=O)CNC(=O)[C@H](Cc2ccc3ccccc3c2)NC1=O
7.2 | N=C(N)NCCC[C@@H]1NC(=O)[C@H](Cc2ccccc2)NC(=O)[C@@H](Cc2ccc(O)cc2)NC(=O)CNC(=O)[C@H](Cc2ccc3ccccc3c2)NC1=O

The next lines start with the compound.

SMILES | EC50 [µM]
N=C(N)NCCC[C@@H]1NC(=O)[C@H](Cc2ccc(N)cc2)NC(=O)[C@@H](Cc2ccc(O)cc2)NC(=O)CNC(=O)[C@H](Cc2ccc3ccccc3c2)NC1=O | 15
N=C(N)NCCC[C@@H]1NC(=O)[C@H](Cc2ccc(NC(=N)N)cc2)NC(=O)[C@@H](Cc2ccc(O)cc2)NC(=O)CNC(=O)[C@H](Cc2ccc3ccccc3c2)NC1=O | 0.68
N=C(N)NCCC[C@@H]1NC(=O)[C@H](CCCNC(N)=O)NC(=O)[C@@H](Cc2ccc(O)cc2)NC(=O)CNC(=O)[C@H](Cc2ccc3ccccc3c2)NC1=O | 2.9
N=C(N)NCCC[C@@H]1NC(=O)C2(CCNCC2)NC(=O)[C@@H](Cc2ccc(O)cc2)NC(=O)CNC(=O)[C@H](Cc2ccc3ccccc3c2)NC1=O | 0.56
N=C(N)NCCC[C@@H]1NC(=O)C2(CCN(C(=N)N)CC2)NC(=O)[C@@H](Cc2ccc(O)cc2)NC(=O)CNC(=O)[C@H](Cc2ccc3ccccc3c2)NC1=O | 0.26
